18 molecules from ChEMBL document CHEMBL3044739, “Synthesis and cytotoxicity of novel N-sulfonyl-1,2,3,4-tetrahydroisoquinoline thiosemicarbazone derivatives” (Med Chem Res, 2013) can be followed below.

In general, IC50 refers to the concentration that gives 50% inhibition.

Converted amounts (≈) assume the structure as drawn. Where only a bound is given, the exact number is not on record here.

Common to all, as to type: functional, cell-based
One test concerns MOLT-3. Nature of the test: Cytotoxicity against Homo sapiens (human) MOLT3 cells assessed as survival after 3 days by crystal violet staining. Particulars: MOLT-3, 72 h.
The subject of another test is A549. Nature of the test: Cytotoxicity against Homo sapiens (human) A549 cells assessed as survival after 3 days by crystal violet staining. Particulars: A549, 72 h.
Another test deals with HepG2. The test can be described thus: Cytotoxicity against Homo sapiens (human) HepG2 cells assessed as survival after 3 days by crystal violet staining. Particulars: HepG2, 72 h.
Test [1] in a line: Cytotoxicity against Homo sapiens (human) HuCCa1 cells assessed as survival after 3 days by crystal violet staining. Particulars: HuCC-A1, 72 h.

As for `NC(=S)N/N=C(/c1ccccc1)c1nccc2ccccc12`, the IC50 in the test with MOLT-3 came out at 0.72 µg/mL (≈ 2.35 µM); in the test on A549, 30 µg/mL (≈ 97.9 µM); in the test with HepG2, 16 µg/mL (≈ 52.2 µM); in test [1] it was 35 µg/mL (≈ 114 µM).
Regarding `C/C(=N\NC(N)=S)C1c2ccccc2CCN1S(=O)(=O)c1cccc([N+](=O)[O-])c1` (centres undefined), the IC50 is 18.1 µg/mL (≈ 41.7 µM) in the test with MOLT-3, greater than 50 µg/mL in the test on A549, 38.5 µg/mL (≈ 88.8 µM) in the test on HepG2 and greater than 50 µg/mL in test [1].
On to `COc1ccc(S(=O)(=O)N2CCc3ccccc3C2/C(C)=N/NC(N)=S)cc1` (centres undefined), for which the IC50 in the test with MOLT-3 is 15.6 µg/mL (≈ 37.2 µM); in the test with A549, greater than 50 µg/mL; with HepG2 it was 33.5 µg/mL (≈ 80 µM); in test [1] it was greater than 50 µg/mL.
In the case of `C/C(=N\NC(N)=S)C1c2ccccc2CCN1S(=O)(=O)c1ccc([N+](=O)[O-])cc1` (centres undefined), the IC50 is 18.2 µg/mL (≈ 42.1 µM) in the test with MOLT-3, greater than 50 µg/mL in the test on A549, 32.3 µg/mL (≈ 74.6 µM) in the test with HepG2 and greater than 50 µg/mL in test [1].
In the case of `COc1ccc(S(=O)(=O)N2CCc3cc(OC)c(OC)cc3C2/C(C)=N/NC(N)=S)cc1` (centres undefined), the IC50 is 2.13 µg/mL (≈ 4.45 µM) with MOLT-3, greater than 50 µg/mL in the test with A549, 10.5 µg/mL (≈ 21.9 µM) in the test with HepG2 and 31 µg/mL (≈ 64.8 µM) in test [1].
For the molecule `C/C(=N\NC(N)=S)C1c2ccccc2CCN1S(=O)(=O)c1ccc(C)cc1` (centres undefined), the half-inhibitory concentration (IC50) in the test with MOLT-3 is 19 µg/mL (≈ 47.2 µM); with A549, greater than 50 µg/mL; with HepG2, 46 µg/mL (≈ 114 µM); in test [1], greater than 50 µg/mL.
In the case of `COc1cc2c(cc1OC)C(/C(C)=N/NC(N)=S)N(S(=O)(=O)c1ccc([N+](=O)[O-])cc1)CC2` (centres undefined), the IC50 was 42.3 µg/mL (≈ 85.7 µM) in the test on MOLT-3, greater than 50 µg/mL in the test with A549, greater than 50 µg/mL in the test with HepG2 and greater than 50 µg/mL in test [1].
`COc1cc2c(cc1OC)C(/C(C)=N/NC(N)=S)N(S(=O)(=O)c1ccc(C)cc1)CC2` (centres undefined): the IC50 (with MOLT-3; in the test with A549; with HepG2; in test [1]) was greater than 50 µg/mL throughout.
In the case of `COc1ccc(S(=O)(=O)N2CCc3ccccc3C2/C(=N/NC(N)=S)c2ccccc2)cc1` (centres undefined), the IC50 in the test with MOLT-3 is 8.44 µg/mL (≈ 17.6 µM); in the test with A549, greater than 50 µg/mL; in the test with HepG2, greater than 50 µg/mL; in test [1], greater than 50 µg/mL.
`Cc1ccc(S(=O)(=O)N2CCc3ccccc3C2/C(=N/NC(N)=S)c2ccccc2)cc1` (centres undefined): the IC50 with MOLT-3 was 7.85 µg/mL (≈ 16.9 µM); in the test with A549 it was greater than 50 µg/mL; in the test on HepG2, greater than 50 µg/mL; in test [1] it was greater than 50 µg/mL.
Take `NC(=S)N/N=C(\c1ccccc1)C1c2ccccc2CCN1S(=O)(=O)c1ccc([N+](=O)[O-])cc1` (centres undefined): the IC50 is 11.3 µg/mL (≈ 22.7 µM) with MOLT-3, greater than 50 µg/mL in the test with A549, greater than 50 µg/mL in the test on HepG2 and greater than 50 µg/mL in test [1].
Take `COc1cc2c(cc1OC)C(/C(=N/NC(N)=S)c1ccccc1)N(S(=O)(=O)c1ccc(Cl)cc1)CC2` (centres undefined): the IC50 was 5.03 µg/mL (≈ 9.23 µM) in the test with MOLT-3, greater than 50 µg/mL in the test with A549, greater than 50 µg/mL in the test with HepG2 and greater than 50 µg/mL in test [1].
With `COc1ccc(S(=O)(=O)N2CCc3cc(OC)c(OC)cc3C2/C(=N/NC(N)=S)c2ccccc2)cc1` (centres undefined), the IC50 with MOLT-3 is 10.4 µg/mL (≈ 19.3 µM); in the test on A549 it was greater than 50 µg/mL; with HepG2, greater than 50 µg/mL; in test [1] it was greater than 50 µg/mL.
As to `COc1cc2c(cc1OC)C(C(=O)c1ccccc1)N(S(=O)(=O)c1ccc(C)cc1)CC2` (centres undefined), the IC50 (with MOLT-3; in the test with A549; in the test on HepG2; in test [1]) was greater than 50 µg/mL throughout.
For the molecule `COc1cc2c(cc1OC)C(/C(=N/NC(N)=S)c1ccccc1)N(S(=O)(=O)c1ccc([N+](=O)[O-])cc1)CC2` (centres undefined), the IC50 (with MOLT-3; in the test on A549; with HepG2; in test [1]) was greater than 50 µg/mL throughout.
In the case of `COc1cc2c(cc1OC)C(/C(=N/NC(N)=S)c1ccccc1)N(S(=O)(=O)c1ccc(C)cc1)CC2` (centres undefined), the IC50 in the test with MOLT-3 is 8.45 µg/mL (≈ 16.1 µM); in the test on A549 it was greater than 50 µg/mL; in the test on HepG2 it was 21.5 µg/mL (≈ 41 µM); in test [1] it was greater than 50 µg/mL.
With `COc1cccc2c1C(=O)c1c(O)c3c(c(O)c1C2=O)C[C@@](O)(C(=O)CO)C[C@@H]3O[C@H]1C[C@H](N)[C@H](O)[C@H](C)O1` [DOXORUBICIN], the IC50 with A549 was 0.38 µg/mL (≈ 0.699 µM); in the test on HepG2, 0.23 µg/mL (≈ 0.423 µM); in test [1], 0.35 µg/mL (≈ 0.644 µM).
On to `COc1cc([C@@H]2c3cc4c(cc3[C@@H](O[C@@H]3O[C@@H]5CO[C@@H](C)O[C@H]5[C@H](O)[C@H]3O)[C@H]3COC(=O)[C@H]23)OCO4)cc(OC)c1O` [ETOPOSIDE], for which the IC50 is 0.024 µg/mL (≈ 0.0408 µM) in the test on MOLT-3 and 16 µg/mL (≈ 27.2 µM) in the test with HepG2.
